1 molecule from ChEMBL document CHEMBL3596108 (Bioorg Med Chem, 2015) can be followed below.

A short description of data set [1]: Cmax in nude mouse at 30 mg/kg, ip administered as single dose. Further details: dose 30 mg/kg, route intraperitoneal. The settings on record: in vivo. The data set is classed as ADME, organism-based.
Data set [2] can be described thus: Tmax in nude mouse at 30 mg/kg, ip administered as single dose. In kind it is ADME, organism-based. As to conditions: in vivo.
Data set [3] in a line: AUC (0 to t) in nude mouse at 30 mg/kg, ip administered as single dose. The data set is classed as ADME, organism-based. The settings on record: in vivo.
The nature of data set [4]: Half life in nude mouse at 30 mg/kg, ip administered as single dose. The data set is classed as ADME, organism-based. As to conditions: in vivo.
Data set [5] in a line: Passive permeability of the compound by PAMPA method. As to conditions: read-out: permeability. In kind it is physicochemical.

The structures appear in SMILES notation.

On to `Cl.NC1CCc2c(Br)ccc(-c3ccccc3)c2CC1=O` (stereo not given), for which, in data set [1], the highest level (Cmax) was 115 ng/mL. Besides, the Tmax in data set [2] is 30 min. In data set [3], this molecule gave an AUC(0-t) of 190 ng·h/mL. This molecule also showed a half-life in data set [4] of 35 min. The Papp in data set [5] amounted to 3.03 ×10⁻⁶ cm/s.

By Cmax is commonly meant the maximum level reached in the sampled fluid or tissue. The term Tmax denotes the time from dosing to the highest level. The term AUC(0-t) denotes the area under the concentration-time curve up to a stated or last time point. Higher therefore signals more exposure. What is called half-life is how long it takes for the measured level to halve.
